According to PubChem BioAssay AID248 (DTP/NCI, 2004):
Where “and” joins values, the source holds several entries; their conditions need not be identical. Equal values may be shown once. Toxic doses and inconclusive results are not listed. Cut-off read from the data, not from the text of the source: active = T/C of 150% or more; inactive = T/C below 125%. Square brackets hold non-standard residues; d marks the D form. Peptide text beside a SMILES is read from it. * marks the point of attachment. ξ: configuration not given here. Pentanoyl = CCCCC(=O)*; ξP = O=C(O)C1CCCN1; Ava = NCCCCC(=O)O

Tested on: L1210 leukemia ip in BDF1 mice, survival T/C
Experiment: NCI In Vivo Anticancer Drug Screen. Data for tumor model L1210 Leukemia (intraperitoneal) in B6D2F1 (BDF1) mice
Details: endpoint: mean survival time, higher = longer survival
Summary of the method: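 In this screen, tumor-bearing mice given compound are compared to those given vehicle, and their survival values are reported as a treated-to-control quotient.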

[1] = dose: 200.0 mg/kg/injection, schedule: Q01DX009 (ip), vehicle: Klucel (hydroxypropylcellulose) (HPC)
[2] = dose: 100.0 mg/kg/injection, schedule: Q04DX002 (ip), vehicle: Klucel (hydroxypropylcellulose) (HPC)
[3] = dose: 200.0 mg/kg/injection, schedule: Q04DX002 (ip), vehicle: Klucel (hydroxypropylcellulose) (HPC)
[4] = dose: 100.0 mg/kg/injection, schedule: Q01DX009 (ip), vehicle: Klucel (hydroxypropylcellulose) (HPC)
[5] = dose: 100.0 mg/kg/injection, schedule: Q01DX001 (ip), vehicle: saline
[6] = dose: 200.0 mg/kg/injection, schedule: Q01DX001 (ip), vehicle: saline
[7] = dose: 400.0 mg/kg/injection, schedule: Q01DX001 (ip), vehicle: saline
[8] = dose: 5.0 mg/kg/injection, schedule: Q01DX001 (ip), vehicle: saline
[9] = dose: 10.0 mg/kg/injection, schedule: Q01DX001 (ip), vehicle: saline
[10] = dose: 20.0 mg/kg/injection, schedule: Q01DX001 (ip), vehicle: saline
[11] = dose: 40.0 mg/kg/injection, schedule: Q01DX001 (ip), vehicle: saline
[12] = dose: 80.0 mg/kg/injection, schedule: Q01DX001 (ip), vehicle: saline
[13] = dose: 100.0 mg/kg/injection, schedule: Q04DX003 (ip), vehicle: Klucel (hydroxypropylcellulose) (HPC)
[14] = dose: 200.0 mg/kg/injection, schedule: Q04DX003 (ip), vehicle: Klucel (hydroxypropylcellulose) (HPC)
[15] = dose: 100.0 mg/kg/injection, schedule: Q01DX001 (ip), vehicle: Klucel (hydroxypropylcellulose) (HPC)
[16] = dose: 200.0 mg/kg/injection, schedule: Q01DX001 (ip), vehicle: Klucel (hydroxypropylcellulose) (HPC)
[17] = dose: 400.0 mg/kg/injection, schedule: Q01DX001 (ip), vehicle: Klucel (hydroxypropylcellulose) (HPC)
[18] = dose: 400.0 mg/kg/injection, schedule: Q04DX002 (ip), vehicle: Klucel (hydroxypropylcellulose) (HPC)
[19] = dose: 400.0 mg/kg/injection, schedule: Q04DX003 (ip), vehicle: Klucel (hydroxypropylcellulose) (HPC)
[20] = dose: 50.0 mg/kg/injection, schedule: Q01DX009 (ip), vehicle: saline with Tween-80
[21] = dose: 200.0 mg/kg/injection, schedule: Q01DX009 (ip), vehicle: saline with Tween-80
[22] = dose: 100.0 mg/kg/injection, schedule: Q01DX009 (ip), vehicle: saline with Tween-80
[23] = dose: 400.0 mg/kg/injection, schedule: Q01DX009 (ip), vehicle: saline with Tween-80

Measured: T/C

O=C(N/N=C/C1CCCCC1)C(=O)N/N=C/C1CCCCC1
inactive: dose: 12.5 mg/kg/injection, schedule: Q01DX009 (ip), vehicle: Klucel (hydroxypropylcellulose) (HPC) 90 % of control | dose: 25.0 mg/kg/injection, schedule: Q01DX009 (ip), vehicle: Klucel (hydroxypropylcellulose) (HPC) 96 % of control and 89 % of control | [1] 89 % of control

CS(=O)(=O)c1nc2ccccc2[nH]1
inactive: [2] 105 % of control | [3] 97 % of control

CCCCCCCCCCCC(=O)c1ccccc1
inactive: [4] 86 % of control | [1] 91 % of control | dose: 400.0 mg/kg/injection, schedule: Q01DX009 (ip), vehicle: Klucel (hydroxypropylcellulose) (HPC) 94 % of control

Nc1nc2nc3c(nc2c(=O)[nH]1)C(=O)N(c1ccc(C(=O)O)cc1)C3
inactive: [5] 103 % of control | [6] 103 % of control

O=C(O)C(Br)CCCCC(Br)C(=O)O (stereo not drawn)
inactive: dose: 100.0 mg/kg/injection, schedule: Q01DX001 (ip), vehicle: steriod suspending solution 105 % of control | dose: 200.0 mg/kg/injection, schedule: Q01DX001 (ip), vehicle: steriod suspending solution 97 % of control | dose: 400.0 mg/kg/injection, schedule: Q01DX001 (ip), vehicle: steriod suspending solution 105 % of control

CCCCC(=O)NCC(=O)N1CCCC1C(=O)NCCCCC(=O)OC (stereo not drawn) (Pentanoyl-Gly-[ξP]-[Ava]-OMe)
inactive: [5] 98 % of control | [6] 95 % of control | [7] 95 % of control

Cc1ccccc1NC(=S)Nc1ccccc1
inactive: dose: 100.0 mg/kg/injection, schedule: Q04DX002 (ip), vehicle: gum acacia 96 % of control | dose: 200.0 mg/kg/injection, schedule: Q04DX002 (ip), vehicle: gum acacia 96 % of control | dose: 400.0 mg/kg/injection, schedule: Q04DX002 (ip), vehicle: gum acacia 89 % of control

C/C=C\C(O)(C(=O)OC)c1ccccc1 (stereo not drawn)
inactive: dose: 100.0 mg/kg/injection, schedule: Q01DX001 (ip), vehicle: other 105 % of control | [5] 97 % of control | dose: 200.0 mg/kg/injection, schedule: Q01DX001 (ip), vehicle: other 107 % of control | [6] 92 % of control | dose: 400.0 mg/kg/injection, schedule: Q01DX001 (ip), vehicle: other 107 % of control | [7] 92 % of control

CC(C)=CCNC12CC3CC(CC(C3)C1)C2
inactive: [8] 101 % of control | [9] 106 % of control | [10] 108 % of control | [11] 107 % of control | [12] 104 % of control

CCOC(=O)NC1=C(Cl)C(=O)C(NC(=O)OCC)=C(Cl)C1=O
inactive: [13] 102 % of control | [14] 92 % of control

CC1(C)C/C(=C\c2cccc([N+](=O)[O-])c2)C(=O)c2ccccc21
inactive: [15] 94 % of control | [16] 93 % of control | [17] 94 % of control

O=S1(=O)CC(CBr)=C(CBr)C1
inactive: dose: 15.0 mg/kg/injection, schedule: Q01DX001 (ip), vehicle: carboxymethylcellulose (CMC) 94 % of control | dose: 30.0 mg/kg/injection, schedule: Q01DX001 (ip), vehicle: carboxymethylcellulose (CMC) 93 % of control | dose: 60.0 mg/kg/injection, schedule: Q01DX001 (ip), vehicle: carboxymethylcellulose (CMC) 100 % of control

CCCCOc1ccc(OCCCC)cc1
inactive: [2] 105 % of control | [3] 97 % of control | [18] 101 % of control

C#CC(CC)(CC)NC(=O)NC(C)(C)C
inactive: [2] 98 % of control | [3] 102 % of control | [18] 86 % of control

CCOc1ccc(N=Nc2c(O)n(-c3ccccc3)c(=S)n(-c3ccccc3)c2=O)cc1
inactive: [15] 96 % of control | [16] 107 % of control | [17] 100 % of control

COc1cccc2c1C13CC(C)CC(C2)C1CCC(=O)N3 (stereo not drawn)
inactive: [13] 100 % of control | [14] 93 % of control | [19] 102 % of control

Nc1nc2c(c(=O)[nH]1)N=C(CCNc1ccc(C(=O)O)cc1)CN2
inactive: [5] 105 % of control | [6] 109 % of control | [7] 109 % of control

Cn1nc(N)c2ncc(C(Cl)(Cl)Cl)nc21
inactive: dose: 25.0 mg/kg/injection, schedule: Q01DX009 (ip), vehicle: saline with Tween-80 108 % of control | [20] 111 % of control

C/C=C/C=C\COC(=O)CC
inactive: dose: 100.0 mg/kg/injection, schedule: Q04DX002 (ip), vehicle: saline 103 % of control | dose: 200.0 mg/kg/injection, schedule: Q04DX002 (ip), vehicle: saline 100 % of control | dose: 400.0 mg/kg/injection, schedule: Q04DX002 (ip), vehicle: saline 103 % of control

Nc1nc(Nc2ccc(NC=O)cc2)c(NC=O)c(=O)[nH]1
inactive: dose: 50.0 mg/kg/injection, schedule: Q01DX001 (ip), vehicle: saline 89 % of control | [6] 86 % of control

NC(CCC(=O)NC(CSCCC(=O)c1ccccc1)C(=O)NCC(=O)O)C(=O)O (stereo not drawn)
inactive: dose: 25.0 mg/kg/injection, schedule: Q01DX009 (ip), vehicle: water 96 % of control | dose: 50.0 mg/kg/injection, schedule: Q01DX009 (ip), vehicle: water 91 % of control | dose: 100.0 mg/kg/injection, schedule: Q01DX009 (ip), vehicle: water 94 % of control | dose: 200.0 mg/kg/injection, schedule: Q01DX009 (ip), vehicle: water 92 % of control | dose: 400.0 mg/kg/injection, schedule: Q01DX009 (ip), vehicle: water 97 % of control

CCN(C(=O)c1ccc([N+](=O)[O-])cc1)C(c1ccccc1)P(=O)(c1ccccc1)c1ccccc1 (stereo not drawn)
inactive: dose: 100.0 mg/kg/injection, schedule: Q04DX002 (ip), vehicle: saline with Tween-80 89 % of control | [21] 95 % of control | dose: 400.0 mg/kg/injection, schedule: Q04DX002 (ip), vehicle: saline with Tween-80 88 % of control

CCCCCCC(C)NCCO (stereo not drawn)
inactive: [8] 97 % of control | [9] 106 % of control | [10] 96 % of control | [11] 94 % of control | [12] 100 % of control

Cc1c(NC(=O)CCl)c(=O)n(-c2ccccc2)n1C
inactive: [4] 98 % of control | [13] 100 % of control | [1] 94 % of control | [14] 96 % of control | [19] 95 % of control

CCCCCCCCCCCCCCCCOP(=O)(O)OCCCCCCCCCCCCCCCC
inactive: [20] 98 % of control | [22] 91 % of control | dose: 100.0 mg/kg/injection, schedule: Q04DX003 (ip), vehicle: saline with Tween-80 105 % of control | [21] 89 % of control | dose: 200.0 mg/kg/injection, schedule: Q04DX003 (ip), vehicle: saline with Tween-80 90 % of control | [23] 93 % of control | dose: 400.0 mg/kg/injection, schedule: Q04DX003 (ip), vehicle: saline with Tween-80 95 % of control

COc1c(NC(=O)COc2ccc(Cl)cc2)cccc1[N+](=O)[O-]
inactive: [22] 96 % of control | [21] 100 % of control | [23] 94 % of control
